Laboratory results published in the NIST ThermoML archive (doi:10.1016/j.jct.2017.03.026).
“And” between values parts separate entries of the source, which are not always exact repeats. Equal entries are not always repeated. Numbers after ± are expanded uncertainties.

Experiment: molar heat capacity at constant pressure
Settings: 101.33 kPa, Crystal, Small (less than 1 g) adiabatic calorimetry

O.O.O.O.O.O=S(=O)([O-])[O-].[Cu+2] [copper(II) sulfate pentahydrate]
Settings | molar heat capacity at constant pressure
37.11 K | 32.81 ± 0.37 J/K/mol
37.27 K | 32.75 ± 0.26 J/K/mol
37.57 K | 33.3 ± 0.26 J/K/mol
37.61 K | 33.52 ± 0.26 J/K/mol
38.25 K | 34.37 ± 0.27 J/K/mol
38.34 K | 34.7 ± 0.27 J/K/mol
38.38 K | 34.84 ± 0.38 J/K/mol
38.55 K | 34.93 ± 0.27 J/K/mol
39.23 K | 35.95 ± 0.28 J/K/mol
39.54 K | 36.51 ± 0.28 J/K/mol
40 K | 37.15 ± 0.28 J/K/mol
40.22 K | 37.51 ± 0.28 J/K/mol
40.31 K | 37.77 ± 0.28 J/K/mol
40.35 K | 37.93 ± 0.41 J/K/mol
41.2 K | 39.02 ± 0.29 J/K/mol
42.19 K | 40.35 ± 0.29 J/K/mol
42.29 K | 40.63 ± 0.3 J/K/mol
42.32 K | 41.04 ± 0.42 J/K/mol
43.17 K | 41.93 ± 0.3 J/K/mol
44.16 K | 43.29 ± 0.31 J/K/mol
44.27 K | 43.38 ± 0.31 J/K/mol
44.29 K | 44.04 ± 0.45 J/K/mol
45 K | 44.39 ± 0.31 J/K/mol
45.14 K | 44.61 ± 0.31 J/K/mol
46.12 K | 45.87 ± 0.32 J/K/mol
46.25 K | 46.08 ± 0.32 J/K/mol
46.27 K | 47.03 ± 0.46 J/K/mol
47.11 K | 47.24 ± 0.32 J/K/mol
48.1 K | 48.62 ± 0.33 J/K/mol
48.23 K | 48.95 ± 0.33 J/K/mol
48.24 K | 49.93 ± 0.48 J/K/mol
49.08 K | 50.18 ± 0.34 J/K/mol
50 K | 51.93 ± 0.34 J/K/mol
50.07 K | 52.01 ± 0.34 J/K/mol
50.21 K | 52.31 ± 0.35 J/K/mol
50.22 K | 52.88 ± 0.5 J/K/mol
51.06 K | 53.89 ± 0.35 J/K/mol
52.04 K | 55.62 ± 0.36 J/K/mol
52.19 K | 55.66 ± 0.36 J/K/mol and 55.74 ± 0.52 J/K/mol
53.03 K | 57.23 ± 0.37 J/K/mol
54.02 K | 58.82 ± 0.37 J/K/mol
54.17 K | 58.74 ± 0.54 J/K/mol
54.18 K | 58.73 ± 0.37 J/K/mol
55 K | 60.26 ± 0.38 J/K/mol and 60.19 ± 0.38 J/K/mol
55.99 K | 61.63 ± 0.38 J/K/mol
56.15 K | 61.82 ± 0.55 J/K/mol
56.16 K | 61.65 ± 0.38 J/K/mol
56.98 K | 62.69 ± 0.39 J/K/mol
57.97 K | 63.82 ± 0.39 J/K/mol
58.14 K | 64.89 ± 0.57 J/K/mol
58.15 K | 64.47 ± 0.39 J/K/mol
58.96 K | 65.23 ± 0.39 J/K/mol
59.95 K | 66.92 ± 0.4 J/K/mol
60 K | 66.98 ± 0.4 J/K/mol
60.12 K | 67.94 ± 0.59 J/K/mol
60.14 K | 67.3 ± 0.41 J/K/mol
60.93 K | 68.42 ± 0.41 J/K/mol
61.92 K | 69.94 ± 0.41 J/K/mol
62.11 K | 70.89 ± 0.6 J/K/mol
62.13 K | 70.09 ± 0.42 J/K/mol
62.92 K | 71.4 ± 0.42 J/K/mol
63.91 K | 72.71 ± 0.42 J/K/mol
64.1 K | 73.66 ± 0.62 J/K/mol
64.13 K | 72.85 ± 0.42 J/K/mol
64.9 K | 74 ± 0.43 J/K/mol
65 K | 74.12 ± 0.43 J/K/mol
65.89 K | 75.34 ± 0.44 J/K/mol
66.1 K | 76.33 ± 0.63 J/K/mol
66.12 K | 75.65 ± 0.43 J/K/mol
66.89 K | 76.71 ± 0.44 J/K/mol
67.88 K | 78.07 ± 0.45 J/K/mol
68.09 K | 78.22 ± 0.45 J/K/mol and 78.9 ± 0.65 J/K/mol
68.88 K | 79.31 ± 0.45 J/K/mol
69.87 K | 80.54 ± 0.45 J/K/mol
70 K | 80.85 ± 0.46 J/K/mol and 80.84 ± 0.45 J/K/mol
70.08 K | 81.47 ± 0.66 J/K/mol
71.87 K | 83.38 ± 0.46 J/K/mol
72.45 K | 84.21 ± 0.47 J/K/mol
72.58 K | 84.91 ± 0.67 J/K/mol
74.88 K | 87.18 ± 0.48 J/K/mol
75 K | 87.24 ± 0.48 J/K/mol
75.45 K | 87.98 ± 0.48 J/K/mol
75.59 K | 88.72 ± 0.69 J/K/mol
77.89 K | 90.83 ± 0.49 J/K/mol
77.95 K | 91.36 ± 0.7 J/K/mol
78.48 K | 91.71 ± 0.49 J/K/mol
79.11 K | 92.21 ± 0.49 J/K/mol
79.15 K | 92.84 ± 0.71 J/K/mol
79.36 K | 93.03 ± 0.71 J/K/mol
80 K | 93.33 ± 0.5 J/K/mol
80.16 K | 93.95 ± 0.72 J/K/mol
80.92 K | 94.52 ± 0.51 J/K/mol
81.18 K | 95.24 ± 0.72 J/K/mol
81.51 K | 95.36 ± 0.5 J/K/mol
82.2 K | 96.42 ± 0.73 J/K/mol
82.48 K | 96.2 ± 0.51 J/K/mol
82.91 K | 97.32 ± 0.73 J/K/mol
83.22 K | 97.59 ± 0.73 J/K/mol
84.24 K | 98.9 ± 0.74 J/K/mol
85 K | 99.12 ± 0.52 J/K/mol
85.26 K | 100.17 ± 0.74 J/K/mol
85.52 K | 99.69 ± 0.52 J/K/mol
85.95 K | 100.9 ± 0.74 J/K/mol
86.12 K | 100.4 ± 0.52 J/K/mol
86.28 K | 101.27 ± 0.74 J/K/mol
87.26 K | 101.63 ± 0.53 J/K/mol
87.3 K | 102.49 ± 0.75 J/K/mol
88.08 K | 103.41 ± 0.76 J/K/mol
88.28 K | 102.83 ± 0.53 J/K/mol
88.33 K | 103.67 ± 0.76 J/K/mol
88.57 K | 103.19 ± 0.53 J/K/mol
89 K | 104.46 ± 0.76 J/K/mol
89.31 K | 103.96 ± 0.54 J/K/mol
89.36 K | 104.73 ± 0.76 J/K/mol
89.57 K | 104.25 ± 0.53 J/K/mol
90 K | 104.7 ± 0.5 J/K/mol
90.33 K | 105.21 ± 0.53 J/K/mol
90.39 K | 105.94 ± 0.77 J/K/mol
90.76 K | 106.39 ± 0.77 J/K/mol
91.36 K | 106.32 ± 0.54 J/K/mol
91.43 K | 107.16 ± 0.76 J/K/mol
91.62 K | 106.68 ± 0.54 J/K/mol
91.84 K | 106.75 ± 0.54 J/K/mol
92.05 K | 107.96 ± 0.77 J/K/mol
92.39 K | 107.49 ± 0.54 J/K/mol
92.47 K | 108.25 ± 0.77 J/K/mol
93.36 K | 109.28 ± 0.78 J/K/mol
93.42 K | 108.59 ± 0.55 J/K/mol
93.5 K | 109.47 ± 0.78 J/K/mol
93.89 K | 109.02 ± 0.54 J/K/mol
94.46 K | 109.82 ± 0.55 J/K/mol
94.55 K | 110.67 ± 0.78 J/K/mol
94.68 K | 110.09 ± 0.55 J/K/mol
95 K | 110.3 ± 0.5 J/K/mol
95.12 K | 111.38 ± 0.78 J/K/mol
95.49 K | 110.97 ± 0.55 J/K/mol
95.59 K | 111.73 ± 0.78 J/K/mol
95.94 K | 111.25 ± 0.55 J/K/mol
95.97 K | 112.11 ± 0.79 J/K/mol
96.53 K | 111.9 ± 0.55 J/K/mol
96.63 K | 112.87 ± 0.79 J/K/mol
97.56 K | 113.1 ± 0.56 J/K/mol
97.68 K | 113.95 ± 0.79 J/K/mol
97.74 K | 113.41 ± 0.56 J/K/mol
97.98 K | 113.44 ± 0.56 J/K/mol
98.19 K | 114.68 ± 0.79 J/K/mol
98.58 K | 114.96 ± 0.8 J/K/mol
98.6 K | 114.41 ± 0.56 J/K/mol
98.72 K | 115.17 ± 0.8 J/K/mol
99.65 K | 115.37 ± 0.56 J/K/mol
99.77 K | 116.31 ± 0.8 J/K/mol
100 K | 115.7 ± 0.6 J/K/mol
100.03 K | 115.65 ± 0.56 J/K/mol
100.69 K | 116.49 ± 0.57 J/K/mol
100.81 K | 117.42 ± 0.8 J/K/mol
100.82 K | 116.62 ± 0.57 J/K/mol
101.2 K | 117.71 ± 0.8 J/K/mol
101.27 K | 117.92 ± 0.8 J/K/mol
